One assay deals with Miapaca-2 cells. The assay is described as follows: MiaPaca-2 Cell Proliferation Assay (1). In kind it is cell-based. Particulars: Homo sapiens, MIA PaCa-2, single agent, read-out: MiaPaca2 (1) IC50. How it is done: MiaPaca-2 Cell Proliferation Assay (1)
Miapaca-2 cells (catalog #CRL-1420) are obtained from the American Type Culture Collect (ATTC, Manassas, VA). Briefly, cells were grown in DMEM supplemented with 10% characterized fetal bovine serum (Invitrogen, Carlsbad, CA), 2.5% New Zealand sourced horse serum and 1% Penicillin/Streptomycin/L-Glutamine at 37° C., 5% CO2, and 95% humidity. Cells are expanded until reaching 70-95% confluency at which point they are sub-cultured or harvested for assay use. A serial dilution of test compound is dispensed into a 96-well black clear bottom plate in triplicate. Three thousand cells are added per well in 200 μL complete growth medium in the 96-well plate. Plates are incubated for 67-72 h at 37° C., 5% CO2, and 95% humidity. At the end of the incubation, 40 μL of a 440 μM solution of resazurin (Sigma, St. Louis, MO) in PBS is added to each well of the plate and plates are incubated for an additional 5-6 h at 37° C., 5% CO2, and 95% humidity. Plates are read on a Synergy2 or equivalent reader (Biotek, Winooski VT) using an excitation of 540 nm and an emission of 600 nm. Data is analyzed using Prism software (GraphPad, San Diego, CA) to calculate IC50 values.

Assay [1] has as its target A-Raf kinase (SEQ. ID No: 1) (Homo sapiens (Human), UniProt P10398, Y301D/Y302D). The experiment in a line: Biochemical Assay for A-Raf (1). The note with it: Table J, assay version (1); read-out: ARAF (1) IC50. A digest of the protocol: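 A-Raf Y301D/Y302D at 5.55 nM phosphorylates 30.1 nM MEK with 1 mM ATP in pH 7.5 Tris buffer, 1% DMSO. Activity was read continuously as NADH oxidation at 340 nm in a pyruvate kinase/lactate dehydrogenase coupled system for 6 h at 30 °C. Rates from 4–5 h were converted to percent inhibition, and IC50 came from a four-parameter fit.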

Assay [2] concerns the target C-Raf kinase (SEQ. ID NO: 3) (Homo sapiens (Human), UniProt P04049, Y340D/Y341D). The experiment in a line: Biochemical Assay for C-Raf (1). Particulars: Table J, assay version (1); read-out: CRAF (1) IC50. A digest of the protocol:
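Coupled pyruvate kinase/LDH assay tracking NADH oxidation at 340 nm, with 0.43 nM C-Raf, 30.1 nM MEK and 1 mM ATP in pH 7.5 Tris buffer (15 mM MgCl2, 1% DMSO final). Read continuously for 6 h at 30 °C, rate taken from the 4–5 h window. IC50 from four-parameter fit of percent inhibition.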

The target of assay [3] is B-Raf (V600E) (SEQ. ID NO: 4) kinase (Homo sapiens (Human), UniProt P15056, V600E). The experiment in a line: Biochemical Assay for B-Raf (V600E) (1). Particulars: Table J, BRAF V600E, assay version (1); read-out: BRAF VE (1) IC50. A digest of the protocol: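 Coupled pyruvate kinase/lactate dehydrogenase assay: 0.03 nM B-Raf V600E, 30.1 nM MEK, 1 mM ATP, pH 7.5 Tris/MgCl2 buffer, 1% DMSO. NADH oxidation followed at 340 nm for 6 h at 30 °C; rate from 3–4 h converted to percent inhibition, IC50 by four-parameter fit.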
B-Raf (V600E) (SEQ. ID NO: 4) kinase, sequence (P15056 416-766 V600E): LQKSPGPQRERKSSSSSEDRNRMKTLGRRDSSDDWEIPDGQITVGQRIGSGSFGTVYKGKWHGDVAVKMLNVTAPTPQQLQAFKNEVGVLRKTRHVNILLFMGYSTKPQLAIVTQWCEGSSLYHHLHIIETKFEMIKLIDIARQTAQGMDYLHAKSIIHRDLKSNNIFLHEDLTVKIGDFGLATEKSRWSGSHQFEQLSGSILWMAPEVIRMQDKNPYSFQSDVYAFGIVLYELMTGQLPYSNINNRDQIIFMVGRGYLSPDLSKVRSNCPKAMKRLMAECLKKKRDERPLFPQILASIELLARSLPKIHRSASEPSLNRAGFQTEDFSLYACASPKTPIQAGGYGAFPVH

C-Raf kinase (SEQ. ID NO: 3), sequence (P04049 307-648 Y340D/Y341D): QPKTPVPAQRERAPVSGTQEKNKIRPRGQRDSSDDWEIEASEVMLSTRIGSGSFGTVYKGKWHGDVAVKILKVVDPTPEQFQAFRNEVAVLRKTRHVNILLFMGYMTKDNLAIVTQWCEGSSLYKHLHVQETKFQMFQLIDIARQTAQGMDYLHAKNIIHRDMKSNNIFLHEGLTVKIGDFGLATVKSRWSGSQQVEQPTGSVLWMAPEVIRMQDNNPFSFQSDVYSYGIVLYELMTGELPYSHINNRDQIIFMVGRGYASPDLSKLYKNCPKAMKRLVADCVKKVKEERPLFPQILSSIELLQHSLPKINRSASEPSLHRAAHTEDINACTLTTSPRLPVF
A-Raf kinase (SEQ. ID No: 1), sequence (P10398 other isoform, or with tags, fused parts or gaps Y301D (already in the parent)/Y302D (already in the parent)): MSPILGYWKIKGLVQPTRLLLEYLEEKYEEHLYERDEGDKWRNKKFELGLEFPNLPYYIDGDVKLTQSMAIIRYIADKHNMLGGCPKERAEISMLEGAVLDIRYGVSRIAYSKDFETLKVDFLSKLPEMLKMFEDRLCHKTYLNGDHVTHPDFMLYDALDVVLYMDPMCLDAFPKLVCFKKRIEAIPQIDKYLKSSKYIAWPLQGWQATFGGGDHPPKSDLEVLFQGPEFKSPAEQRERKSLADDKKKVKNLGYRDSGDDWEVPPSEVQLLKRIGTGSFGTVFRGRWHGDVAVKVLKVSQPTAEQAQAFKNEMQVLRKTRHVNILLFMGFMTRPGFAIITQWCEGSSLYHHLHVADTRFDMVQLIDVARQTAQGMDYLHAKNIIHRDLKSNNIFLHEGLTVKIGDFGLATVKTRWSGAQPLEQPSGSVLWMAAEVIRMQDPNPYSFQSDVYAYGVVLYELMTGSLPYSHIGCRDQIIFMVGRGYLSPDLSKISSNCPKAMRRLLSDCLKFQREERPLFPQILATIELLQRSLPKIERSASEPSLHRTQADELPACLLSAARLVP

In the case of `CNC(=O)c1cc(-c2ccnc(-c3cc(NC(=O)c4ccnc(C(C)(C)C#N)c4)ccc3C)n2)ccn1` [Example 177], the IC50 in the assay with Miapaca-2 cells was 1000 to 10000 nM; in assay [1], 1000 to 10000 nM; in assay [2], at most 100 nM; in assay [3] it was at most 100 nM.

As for `CNc1cc(-c2cccc(-c3cc(NC(=O)c4ccnc(C(C)(C)C#N)c4)ccc3C)c2)ncn1` [Example 160], the IC50 in the assay with Miapaca-2 cells was 1000 to 10000 nM; in assay [1], 1000 to 10000 nM; in assay [2], at most 100 nM; in assay [3], at most 100 nM.

With `Cc1ccc(NC(=O)c2ccnc(C(C)(C)C#N)c2)cc1-c1ccnc(-c2ccnc(C(=O)NC3CC3)c2)c1` [Example 162], the IC50 in the assay on Miapaca-2 cells was 1000 to 10000 nM; in assay [1], 1000 to 10000 nM; in assay [2] it was 100 to 500 nM; in assay [3], at most 100 nM.

`CNC(=O)c1cc(-c2cc(-c3cc(NC(=O)c4ccnc(C(C)(C)C#N)c4)cnc3C)ccn2)ccn1` [Example 158]: the IC50 is 1000 to 10000 nM in the assay on Miapaca-2 cells, 1000 to 10000 nM in assay [1], 100 to 500 nM in assay [2] and at most 100 nM in assay [3].

Take `COCC(=O)Nc1cc(-c2cncc(-c3cc(NC(=O)c4ccnc(C(F)(F)F)c4)ccc3C)n2)ccn1` [Example 99]: the IC50 in the assay on Miapaca-2 cells was 1000 to 10000 nM; in assay [1], 1000 to 10000 nM; in assay [2], at most 100 nM; in assay [3], at most 100 nM.

`CC(=O)Nc1cc(-c2cc(-c3cc(NC(=O)c4ccnc(C(F)(F)F)c4)ccc3C)ccn2)ccn1` [Example 6]: the IC50 in the assay on Miapaca-2 cells was 1000 to 10000 nM; in assay [1], 100 to 500 nM; in assay [2], at most 100 nM; in assay [3], at most 100 nM.

Take `Cc1ncc(NC(=O)c2ccnc(C(C)(C)C#N)c2)cc1-c1cccc(-c2ccnc3[nH]cnc23)c1` [Example 111]: the IC50 in the assay with Miapaca-2 cells was 1000 to 10000 nM; in assay [1], 1000 to 10000 nM; in assay [2], 100 to 500 nM; in assay [3], at most 100 nM.

For `CC(=O)Nc1cc(-c2nccc(-c3cc(NC(=O)c4cc(C(F)(F)F)ccn4)ccc3C)n2)ccn1` [Example 153], the IC50 in the assay with Miapaca-2 cells is 1000 to 10000 nM; in assay [1] it was 100 to 500 nM; in assay [2], at most 100 nM; in assay [3] it was at most 100 nM.

Regarding `CC(=O)Nc1cc(-c2cc(-c3cc(NC(=O)c4ccnc(C(F)(F)F)c4)c(F)cc3C)cc(C)n2)ccn1` [Example 4], the IC50 is 1000 to 10000 nM with Miapaca-2 cells, 1000 to 10000 nM in assay [1], at most 100 nM in assay [2] and at most 100 nM in assay [3].

For the compound `CC(=O)Nc1cc(-c2cc(-c3cc(NC(=O)c4ccnc(C(F)(F)F)c4)ccc3C)cn(CCO)c2=O)ccn1` [Example 102], the IC50 is 1000 to 10000 nM in the assay on Miapaca-2 cells, 1000 to 10000 nM in assay [1], 100 to 500 nM in assay [2] and at most 100 nM in assay [3].

As for `CNC(=O)c1cc(-c2cncc(-c3cc(NC(=O)c4ccnc(C5CC5)c4)ccc3C)n2)ccn1` [Example 139], the IC50 in the assay on Miapaca-2 cells is 1000 to 10000 nM; in assay [1] it was 1000 to 10000 nM; in assay [2], at most 100 nM; in assay [3], at most 100 nM.

Consider `CC(=O)Nc1cc(-c2cc(-c3cc(NC(=O)c4ccnc(C(F)(F)F)c4)ccc3C)cc(C)n2)ccn1` [Example 5], for which the IC50 was 1000 to 10000 nM in the assay with Miapaca-2 cells, 1000 to 10000 nM in assay [1], at most 100 nM in assay [2] and at most 100 nM in assay [3].

Consider `Cc1ncc(NC(=O)c2ccnc(C(C)(C)C#N)c2)cc1-c1cccc(-c2ncnc3[nH]ncc23)c1` [Example 129], for which the IC50 in the assay with Miapaca-2 cells is 1000 to 10000 nM; in assay [1], 1000 to 10000 nM; in assay [2], at most 100 nM; in assay [3] it was at most 100 nM.

On to `CC(=O)Nc1cc(-c2cc(-c3cc(NC(=O)c4ccnc(C(F)(F)F)c4)ccc3C)cc(=O)n2C)ccn1` [Example 11], for which the IC50 is 1000 to 10000 nM in the assay on Miapaca-2 cells, 1000 to 10000 nM in assay [1], at most 100 nM in assay [2] and at most 100 nM in assay [3].

For `CC(=O)Nc1cc(-c2cncc(-c3cc(NC(=O)c4ccnc(C(C)(C)C#N)c4)ccc3C)n2)ccn1` [Example 140], the IC50 with Miapaca-2 cells is 500 to 1000 nM; in assay [1] it was 500 to 1000 nM; in assay [2] it was at most 100 nM; in assay [3] it was at most 100 nM.

On to `CC(=O)Nc1nccc(-c2cccc(-c3cc(NC(=O)c4ccnc(C(F)(F)F)c4)ccc3C)c2)c1C#N` [Example 132], for which the IC50 with Miapaca-2 cells is 1000 to 10000 nM; in assay [1], 1000 to 10000 nM; in assay [2], at most 100 nM; in assay [3], at most 100 nM.

On to `COCC(=O)Nc1cc(-c2cccc(-c3cc(NC(=O)c4ccnc(C(F)(F)F)c4)cnc3C)n2)ccn1` [Example 130], for which the IC50 in assay [1] is 1000 to 10000 nM; in assay [2] it was at most 100 nM; in assay [3] it was at most 100 nM.

Turning to `Cc1ccc(NC(=O)c2ccnc(C(C)(C)C#N)c2)cc1-c1cccc(-c2ncnc3c2CC(=O)N3)c1` [Example 109], the IC50 was 1000 to 10000 nM with Miapaca-2 cells, 1000 to 10000 nM in assay [1], at most 100 nM in assay [2] and at most 100 nM in assay [3].

Regarding `CNC(=O)c1cc(-c2cc(-c3cc(NC(=O)c4ccnc(C(C)(C)C#N)c4)ccc3C)cc(C3CC3)n2)ccn1` [Example 163], the IC50 in assay [1] is 1000 to 10000 nM; in assay [2] it was 100 to 500 nM; in assay [3], at most 100 nM.

For `Cc1ccc(NC(=O)c2ccnc(C3(C#N)CC3)c2)cc1-c1ccnc(-c2ccnc(NC(=O)C3CC3)c2)n1` [Example 180], the IC50 is 1000 to 10000 nM in the assay with Miapaca-2 cells, 100 to 500 nM in assay [1], at most 100 nM in assay [2] and at most 100 nM in assay [3].

For `CNC(=O)c1cc(-c2nccc(-c3cc(NC(=O)c4ccnc(C5(C#N)CC5)c4)ccc3C)n2)ccn1` [Example 175], the IC50 is 1000 to 10000 nM in the assay with Miapaca-2 cells, 1000 to 10000 nM in assay [1], at most 100 nM in assay [2] and at most 100 nM in assay [3].

As to `Cc1ccc(NC(=O)c2ccnc(C(F)(F)F)c2)cc1-c1cncc(-c2ccnc(NC(=O)CC#N)c2)n1` [Example 98], the IC50 in the assay with Miapaca-2 cells was 1000 to 10000 nM; in assay [1], 100 to 500 nM; in assay [2], at most 100 nM; in assay [3], at most 100 nM.

In the case of `CC(=O)Nc1cc(-c2nccc(-c3cc(NC(=O)c4ccnc(C5CC5)c4)ccc3C)n2)ccn1` [Example 152], the IC50 is 1000 to 10000 nM in the assay on Miapaca-2 cells, 500 to 1000 nM in assay [1], at most 100 nM in assay [2] and at most 100 nM in assay [3].

For the compound `CC(=O)Nc1cc(-c2nccc(-c3cc(NC(=O)c4ccnc(C(C)(C)C#N)c4)ccc3C)n2)ccn1` [Example 118], the IC50 in the assay on Miapaca-2 cells is 1000 to 10000 nM; in assay [1] it was 500 to 1000 nM; in assay [2] it was at most 100 nM; in assay [3] it was at most 100 nM.

On to `Cc1ccc(NC(=O)c2ccnc(C(F)F)c2)cc1-c1cncc(-c2ccnc(NC(=O)C3CC3)c2)n1` [Example 117], for which the IC50 is 1000 to 10000 nM in the assay on Miapaca-2 cells, 1000 to 10000 nM in assay [1], at most 100 nM in assay [2] and at most 100 nM in assay [3].

With `CNC(=O)c1cc(-c2cncc(-c3cc(NC(=O)c4cccc(C(C)(C)C#N)c4)ccc3C)n2)ccn1` [Example 136], the IC50 with Miapaca-2 cells was 1000 to 10000 nM; in assay [1], 1000 to 10000 nM; in assay [2], at most 100 nM; in assay [3], at most 100 nM.

As to `Cc1ccc(NC(=O)c2ccnc(C(F)(F)F)c2)cc1-c1cncc(-c2ccnc(NC=O)c2)n1` [Example 123], the IC50 in the assay on Miapaca-2 cells is 1000 to 10000 nM; in assay [1] it was 1000 to 10000 nM; in assay [2], at most 100 nM; in assay [3] it was at most 100 nM.

In the case of `CC(=O)Nc1cc(-c2cncc(-c3cc(NC(=O)c4ccnc(C5(C#N)CC5)c4)ccc3C)n2)ccn1` [Example 146], the IC50 is 1000 to 10000 nM in the assay on Miapaca-2 cells, 500 to 1000 nM in assay [1], at most 100 nM in assay [2] and at most 100 nM in assay [3].

In the case of `Cc1ccc(NC(=O)c2ccnc(C(C)(C)C#N)c2)cc1-c1cccc(-c2ccnc3[nH]ccc23)c1` [Example 133], the figures for the IC50 in assay [1], in assay [2] and in assay [3] were 1000 to 10000 nM, 100 to 500 nM and at most 100 nM, respectively.

For `CC(=O)Nc1cc(-c2cc(-c3cc(NC(=O)c4ccnc(C(F)(F)F)c4)c(F)cc3C)cc(OC(C)C)n2)ccn1` [Example 10], the IC50 in assay [1] is 1000 to 10000 nM; in assay [2], 100 to 500 nM; in assay [3], at most 100 nM.

Usually IC50 stands for the midpoint of a concentration-inhibition curve.

Source of the values: patent publication US12319655B2, “RAF kinase inhibitors and methods of use thereof” (Deciphera Pharmaceuticals, LLC, priority 2021, dated 2025).
